pEC50: −log10 of the molar value.
What was measured:
[1] = Tmax in fasted healthy human at 3 mg/kg, po; type: ADME, organism-based; design: dose 3 mg/kg, route oral; settings: in vivo
Hepatitis C virus [2] = assay: Ratio of EC50 for HCV genotype 1b Con1 infected in human HuH7 cells in presence of 10% BSA to EC50 for HCV genotype 1b Con1 infected in human HuH7 cells; type: functional, Hepacivirus hominis, isolate Con1, Huh-7
[3] = Oral bioavailability in cynomolgus monkey at 1 mg/kg; type: ADME, organism-based, Macaca fascicularis; settings: in vivo
[4] = Clearance in beagle dog at 0.2 mg/kg, iv; type: ADME, organism-based, Canis lupus familiaris; design: dose 0.2 mg/kg, route intravenous; settings: in vivo
[5] = Metabolic stability in Sprague-Dawley rat liver microsomes assessed as hepatic extraction at 3 uM after 60 mins by LC/MS/MS analysis; type: ADME; settings: read-out: ERH
[6] = Cmax in fasted healthy human at 30 mg/kg, po; type: ADME, organism-based; design: dose 30 mg/kg, route oral; settings: in vivo
Canis familiaris = organism: Canis familiaris; assay: Toxicity in beagle dog assessed as adverse effects by 14 day toxicology study; type: organism-based, Canis lupus familiaris; settings: in vivo, 336 h
[7] = Volume of distribution at steady state in cynomolgus monkey at 0.5 mg/kg, iv; type: ADME, organism-based, Macaca fascicularis; design: dose 0.5 mg/kg, route intravenous; settings: in vivo, read-out: Vdss
[8] = Metabolic stability in human liver microsomes assessed as hepatic extraction at 3 uM after 60 mins by LC/MS/MS analysis; type: ADME; settings: read-out: ERH
Hepatitis C virus [9] = assay: Antiviral activity against HCV genotype 1b Con1 infected in human HuH7 cells assessed as inhibition of viral RNA replication after 3 days by renilla luciferase reporter gene assay in presence of human serum; type: functional, organism-based, Hepacivirus hominis; settings: isolate Con1, Huh-7, 72 h
[10] = AUClast in fasted healthy human at 100 mg/kg, po; type: ADME, organism-based; design: time 0 - last, dose 100 mg/kg, route oral; settings: plasma
[11] = Half life in cynomolgus monkey at 0.5 mg/kg, iv; type: ADME, organism-based, Macaca fascicularis; design: dose 0.5 mg/kg, route intravenous; settings: in vivo
[12] = Mean residence time in Sprague-Dawley rat at 1 mg/kg, iv; type: ADME, organism-based; design: dose 1 mg/kg, route intravenous; settings: in vivo
[13] = Cmax in fasted healthy human at 60 mg/kg, po; type: ADME, organism-based; design: dose 60 mg/kg, route oral; settings: in vivo
Hepatitis C virus [14] = assay: Antiviral activity against HCV genotype 1b Con1 infected in human HuH7 cells assessed as inhibition of viral RNA replication after 3 days by renilla luciferase reporter gene assay in presence of 10% BSA; type: functional, organism-based, Hepacivirus hominis; settings: isolate Con1, Huh-7, 72 h
[15] = AUClast in fasted healthy human at 10 mg/kg, po; type: ADME, organism-based; design: time 0 - last, dose 10 mg/kg, route oral; settings: plasma
[16] = AUC (infinity) in fasted healthy human at 60 mg/kg, po; type: ADME, organism-based; design: time infinity, dose 60 mg/kg, route oral; settings: plasma
[17] = Mean residence time in cynomolgus monkey at 0.5 mg/kg, iv; type: ADME, organism-based, Macaca fascicularis; design: dose 0.5 mg/kg, route intravenous; settings: in vivo
[18] = Volume of distribution at steady state in Sprague-Dawley rat at 1 mg/kg, iv; type: ADME, organism-based; design: dose 1 mg/kg, route intravenous; settings: in vivo, read-out: Vdss
Hepatitis C virus [19] = assay: Ratio of EC50 for HCV genotype 1a H77 infected in human HuH7 cells in presence of human serum to EC50 for HCV genotype 1a H77 infected in human HuH7 cells; type: functional, Hepacivirus hominis, Huh-7
[20] = Oral bioavailability in beagle dog at 0.5 mg/kg; type: ADME, organism-based, Canis lupus familiaris; settings: in vivo
[21] = Half life in fasted healthy human at 100 mg/kg, po; type: ADME, organism-based; design: dose 100 mg/kg, route oral; settings: in vivo
[22] = AUC (infinity) in fasted healthy human at 100 mg/kg, po; type: ADME, organism-based; design: time infinity, dose 100 mg/kg, route oral; settings: plasma
[23] = Plasma concentration in fasted healthy human at 30 mg/kg, po at 24 hrs; type: ADME, organism-based; design: dose 30 mg/kg, route oral
[24] = Mean residence time in beagle dog at 0.2 mg/kg, iv; type: ADME, organism-based, Canis lupus familiaris; design: dose 0.2 mg/kg, route intravenous; settings: in vivo
[25] = AUClast in fasted healthy human at 60 mg/kg, po; type: ADME, organism-based; design: dose 60 mg/kg, route oral, time 0 - last; settings: plasma
[26] = AUC (infinity) in fasted healthy human at 3 mg/kg, po; type: ADME, organism-based; design: time infinity, dose 3 mg/kg, route oral; settings: plasma
Hepatitis C virus [27] = assay: Antiviral activity against HCV genotype 1a H77 infected in human HuH7 cells assessed as inhibition of viral RNA replication after 3 days by renilla luciferase reporter gene assay in presence of human serum; type: functional, organism-based, Hepacivirus hominis; settings: genotype 1a H77, Huh-7, 72 h
[28] = Cmax in fasted healthy human at 3 mg/kg, po; type: ADME, organism-based; design: dose 3 mg/kg, route oral; settings: in vivo
[29] = Half life in Sprague-Dawley rat at 1 mg/kg, iv; type: ADME, organism-based; design: dose 1 mg/kg, route intravenous; settings: in vivo
[30] = Tmax in fasted healthy human at 30 mg/kg, po; type: ADME, organism-based; design: dose 30 mg/kg, route oral; settings: in vivo
[31] = Volume of distribution at steady state in beagle dog at 0.2 mg/kg, iv; type: ADME, organism-based, Canis lupus familiaris; design: dose 0.2 mg/kg, route intravenous; settings: in vivo, read-out: Vdss

Tmax [1]: 5.25 h
bioavailability [3]: 41.1%
clearance [4]: 2.17 mL/min/kg
hepatic extraction ratio at 1 h, 3 µM [5]: < 0.092
Cmax [6]: 82.2 nM
Vd [7]: 2.15 L/kg
hepatic extraction ratio at 1 h, 3 µM [8]: < 0.127
pEC50 (Hepatitis C virus [9]): 10.57
AUC(0-t) [10]: 7.05 µM·h
half-life [11]: 10.3 h
MRT [12]: 6.19 h
Cmax [13]: 133 nM
pEC50 (Hepatitis C virus [14]): 10.57
AUC(0-t) [15]: 0.558 µM·h
AUC(0-inf) [16]: 5.3 µM·h
MRT [17]: 12.9 h
Vd [18]: 2.66 L/kg
bioavailability [20]: 53%
half-life [21]: 39.5 h
AUC(0-inf) [22]: 8.66 µM·h
concentration at 24 h [23]: 31.4 nM
MRT [24]: 9.2 h
AUC(0-t) [25]: 4.01 µM·h
AUC(0-inf) [26]: 0.245 µM·h
pEC50 (Hepatitis C virus [27]): 9.68
Cmax [28]: 6.75 nM
half-life [29]: 4.67 h
Tmax [30]: 5.75 h
Vd [31]: 1.19 L/kg
SMILES: COC(=O)N[C@H](C(=O)N1CC2(CC2)C[C@H]1c1nc(-c2ccc3c(c2)C(F)(F)c2cc(-c4ccc5[nH]c([C@@H]6[C@H]7CC[C@H](C7)N6C(=O)[C@@H](NC(=O)OC)C(C)C)nc5c4)ccc2-3)c[nH]1)C(C)C
Ratio EC50 (Hepatitis C virus [2]): 6.7
Activity (Canis familiaris): Non-toxic
Ratio EC50 (Hepatitis C virus [19]): 6.7
